Experiments:
Format in all cases: in vivo
Phaedon cochleariae = assay: Phaedon test (PHAECO spray treatment); settings: application rate 500 g/ha, after 7 days, Chinese cabbage leaf discs
Method in brief: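 Chinese cabbage (Brassica pekinensis) leaf discs sprayed with compound diluted in emulsifier-containing water to the desired concentration, then infested with mustard beetle larvae once dry. Mortality in % scored after 7 days or after the desired period (100% = all larvae dead, 0% = none dead).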

Tetranychus urticae = assay: Tetranychus test (TETRUR spray treatment; OP-resistant in Example 10); settings: application rate 100 g/ha, after 5 days, bean leaf discs
Method in brief: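 Bean leaf discs (Phaseolus vulgaris) infested with all stages of Tetranychus urticae sprayed with compound diluted in emulsifier-containing water. In the standard test, % kill scored after 5 days. The OP-resistant strain test uses the same method with scoring after a set period; 100% = all mites dead, 0% = none.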

Digitaria sanguinalis = assay: Herbicidal post-emergence action, DIGSA; settings: 20 g/ha
Method in brief: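 Weeds sown in sandy loam, grown in greenhouse 2–3 weeks and treated post-emergence at one-leaf stage (or BBCH 10–13, 5–10 cm) with WP/EC formulations sprayed at various dosages (600–800 l/ha water, 0.1–0.2% wetting agent). Visual rating after about 3 weeks as % activity versus untreated (100% = dead).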

## CCOC(=O)OC1=C(c2c(C)cc(I)cc2CC)C(=O)C2(CCC(OC)CC2)N1 (mixture of isomers) [I-b-2]
Phaedon cochleariae
  effect in % (beetle larvae killed): 83%
Tetranychus urticae
  effect in % (spider mites killed): 80%
Digitaria sanguinalis
  % Activity DIGSA: 90%

Reference: US9204640B2, “2-acyloxy-pyrrolin-4-ones” (BAYER INTELLECTUAL PROPERTY GMBH, priority 2011, dated 2015)
